{"source": "patent US6582713B2", "about": "“Compositions and methods for promoting wound healing” (Univ. of Colorado - Colorado Springs, priority 2000, dated 2003)", "key": {"[1]": {"assay": "Blood glucose level after treatment injected into incision sealed with cyanoacrylate", "assay_type": "in vivo, mice", "settings": "for Blood Glucose Level: individual mice", "description": "Twelve mice were used in the study. Each mouses' blood glucose level was tested at the start of the study. The mice were then weighted and anesthetized. The back of the neck was shaved and a single incision was made. The incision was then sealed with cyanoacrylate polymer which was applied and allowed to set for 1½ minutes. The treatment (glucose, water, insulin, or insulin plus glucose) as described above were injected into the incision. […] On day 1, blood glucose was again measured and the wound was photographed. This was repeated on days 3, 5, and 7. Mouse numbers 1, 2, and 3 received glucose treatment. Mouse numbers 4, 5, and 6 received water (control). Mouse numbers 7, 8, and 9 received insulin plus glucose. Mouse numbers 10, 11, and 12 received insulin."}, "unsealed wound": {"test_system": "unsealed wound", "assay": "Effect of three day insulin treatment on unsealed wound in vivo", "set-up": "species or system mice", "settings": "100 micro liters applied to unsealed incision, photographs daily for one week", "from_the_text": "Six mice were anesthetized with avetin Q 15-18 micro liters per gram body weight. An area on the back of the neck was swabbed with alcohol and shaved. A single vertical incision was made with scissors. One hundred micro liters of insulin was applied to three mice and 100 micro liters of water was applied to the other three. Photographs of the wounds were taken on a daily basis for one week."}}, "note": "Values joined by “and” are separate entries in the source; they are usually repeats but may differ in a detail not shown here. Identical values can stand only once. Marks after values point to notes of the source that are not given here."}
{"substance": "insulin", "values": [{"measurement": "Blood Glucose Level", "setting": "[1]; 0 Hr (start of study, before treatment)", "value": "89 mg/dL and 104 mg/dL and 118 mg/dL"}, {"measurement": "Blood Glucose Level", "setting": "[1]; 0.5 Hr, incision sealed with cyanoacrylate", "value": "58 mg/dL and 36 mg/dL and 46 mg/dL"}, {"measurement": "Blood Glucose Level", "setting": "[1]; 3.0 Hr., incision sealed with cyanoacrylate", "value": "<25", "unit": "mg/dL"}, {"measurement": "Blood Glucose Level", "setting": "[1]; 21 Hr., incision sealed with cyanoacrylate", "value": "<25 mg/dL (2×) and 113 mg/dL"}, {"measurement": "Blood Glucose Level", "setting": "[1]; 69 Hr., incision sealed with cyanoacrylate", "value": "<25* mg/dL and 109 mg/dL"}, {"measurement": "death of mouse", "setting": "[1]; by 69 Hr., individual mouse", "value": "Died"}, {"measurement": "effect on levels of blood glucose compared with control water treatment", "setting": "[1]; summary of Table 1", "value": "dramatic effects"}, {"measurement": "wound healing compared with water", "setting": "unsealed wound", "value": "More complete wound healing"}]}
